This experiment addresses T1, IRAK4 (Homo sapiens, UniProt Q9NWZ3).
T1 construct: purchased CARNA Bioscience 09-145
T1 sequence (Q9NWZ3 1-460): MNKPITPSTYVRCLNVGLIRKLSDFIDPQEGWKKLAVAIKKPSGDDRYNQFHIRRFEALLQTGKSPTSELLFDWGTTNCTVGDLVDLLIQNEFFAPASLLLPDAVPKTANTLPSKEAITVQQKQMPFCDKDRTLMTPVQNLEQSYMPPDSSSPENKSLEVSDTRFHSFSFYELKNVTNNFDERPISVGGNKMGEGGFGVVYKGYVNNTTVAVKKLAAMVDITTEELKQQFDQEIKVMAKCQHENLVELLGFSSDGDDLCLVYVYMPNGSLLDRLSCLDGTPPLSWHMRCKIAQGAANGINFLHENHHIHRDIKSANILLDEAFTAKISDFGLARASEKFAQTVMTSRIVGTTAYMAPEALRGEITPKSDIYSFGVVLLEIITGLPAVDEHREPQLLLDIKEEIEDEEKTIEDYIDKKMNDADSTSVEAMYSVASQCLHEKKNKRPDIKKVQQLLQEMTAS
Nature of the experiment: IRAK-4 activity inhibition assay (Caliper). As to conditions: 3.5 nM IRAK4, 37 μM ATP, 1.5 μM Peptide 8. The class given is biochemical. Here is the method: A 1× kinase base buffer was prepared from 50 mM HEPES, pH 7.5 and 0.0015% Brij-35. A stop buffer was prepared from 100 mM HEPES, pH 7.5, 0.015% Brij-35, 0.2% Coating Reagent #3, and 50 mM EDTA.
Test compound was diluted to 50× of the final desired highest inhibitor concentration in reaction by 100% DMSO. 100 ul of this compound dilution was transferred to a well in a 96-well plate. For example, if desired highest inhibitor concentration in IC50 determination is 100 uM, then prepare 5000 uM of compound DMSO solution in this step.
Test compound was serially diluted by transferring 30 μl to 60 μl of 100% DMSO in the next well and so forth for a total of 10 concentrations. 100 μl of 100% DMSO was added to two empty wells for no compound control and no enzyme control in the same 96-well plate.
A new 96-well plate was marked as intermediate plate. 5 μl of compound serial dilution was transferred from source plate to the corresponding wells of the intermediate plate. 45 μl of 1× kinase base buffer (KB buffer) was added to each well of the intermediate plate. The intermediate plate was placed for 10 min on a shaker.
5 μl of each well was transferred from the 96-well intermediate plate to a 384-well plate in duplicates. For example, A1 of the 96-well plate is transferred to A1 and A2 of the 384-well plate. A2 of the 96-well plate is transferred to A3 and A4 of the 384-well plate, and so on.
IRAK4 and DTT in 1× kinase base buffer was added. The 2.5× enzyme mix contained 8.8 nM IRAK4 and 5 mM DTT.
Peptide 8, ATP, MgCl2 and MnCl2 were added in the 1× kinase base buffer. The 2.5× peptide mix contained 3.75 μM peptide 8, 92.5 μM ATP, 12.5 mM MgCl2 and 2.5 mM MnCl2.
Assay plate already contained 5 μl of compound in 10% DMSO. Added 10 μl of 2.5× enzyme solution to each well of the 384-well assay plate, except no enzyme control wells. The final concentration of IRAK4 in reaction was 3.5 nM. Added 10 μl of 1× kinase base buffer to no enzyme control wells in the assay plate. Incubated at room temperature for 10 min.
Added 10 μl of 2.5× peptide solution to each well of the 384-well assay plate. The final concentration of Peptide 8 and ATP was 1.5 μM and 37 μM, respectively. Incubated at 28° C. for 40 minutes. Added 25 μl of stop buffer to stop reaction. Collected data on Caliper.
Copied conversion % data from Caliper program. Converted conversion % values to percent inhibition values. Percent inhibition=(max-conversion %)/(max-min)*100, where “max” means the conversion % of DMSO control and “min” means the conversion % of no enzyme control.
The compound numbers correspond to the compound numbers in Table 1. Compounds having an activity designated as “A” provided an IC50≦1 μM; compounds having an activity designated as “B” provided an IC50 of 1-5 μM; compounds having an activity designated as “C” provided an IC50 of ≧5 μM. “NA” stands for “not assayed.”

Drawing on patent publication US9518065B2, “IRAK inhibitors and uses thereof” (NIMBUS IRIS, INC., priority 2013, dated 2016), this text covers IC50 for 24 compounds.

SMILES strings stand for the structures.

One may read the IC50 as the concentration that gives 50% inhibition. Read a high IC50 as a need for much substance.

`CCc1nsc2ncnc(N[C@H]3CC[C@H](N4CCOCC4)CC3)c12` [Compound I-20, 3-ethyl-N-((1r,4r)-4-morpholinocyclohexyl)isothiazolo[5,4-d]pyrimidin-4-amine] showed an IC50 of 1 to 5 µM.
Take `CCc1nc2c(N(CC)[C@H]3CC[C@H](N4CCOCC4)CC3)ncnc2s1` [Compound I-6, N,2-diethyl-N-((1r,4r)-4-morpholinocyclohexyl)thiazolo[5,4-d]pyrimidin-7-amine]: the concentration for half-maximal inhibition (IC50) is at least 5 µM.
On to `CCc1nc2c(N[C@H]3CC[C@H](N4CCOCC4)CC3)nc(N)nc2s1` [Compound I-31, 2-ethyl-N7-((1r,4r)-4-morpholinocyclohexyl)thiazolo[5,4-d]pyrimidine-5,7-diamine], for which the IC50 is at least 5 µM.
As to `CC(C)c1nc2c(N[C@H]3CC[C@H](N(C)C)CC3)ncnc2s1` [Compound I-2, (1r,4r)-N-1-(2-isopropylthiazolo[5,4-d]pyrimidin-7-yl)-N4,N4-dimethylcyclohexane-1,4-diamine], the IC50 lay within 1 to 5 µM.
In the case of `Cc1nc2c(N[C@H]3CC[C@H](N(C)C)CC3)ncnc2s1` [Compound I-4, (1r,4r)-N1,N1-dimethyl-N4-(2-methylthiazolo[5,4-d]pyrimidin-7-yl)cyclo-hexane-1,4-diamine] it was 1 to 5 µM; in that of `CCc1nc2c(N[C@H]3CC[C@H](N4CCOCC4)CC3)ncnc2s1` [Compound I-5, 2-ethyl-N-((1r,4r)-4-morpholinocyclohexyl)thiazolo[5,4-d]pyrimidin-7-amine], 1 to 5 µM.
Consider `CC(=O)c1nc2c(N[C@H]3CC[C@H](N4CCOCC4)CC3)nc(Nc3cnn(C)c3)nc2s1` [Compound I-41, 1-(5-((1-methyl-1H-pyrazol-4-yl)amino)-7-(((1r,4r)-4-morpholinocyclohexyl)amino)thiazolo[5,4-d]pyrimidin-2-yl)ethan-1-one], for which the concentration for half-maximal inhibition (IC50) was at most 1 µM.
For the compound `OCCn1cc(Nc2nc(N[C@H]3CC[C@H](N4CCOCC4)CC3)c3ncsc3n2)cn1` [Compound I-54, 2-(4-((7-(((1r,4r)-4-morpholinocyclohexyl)amino)thiazolo[5,4-d]pyrimidin-5-yl)amino)-1H-pyrazol-1-yl)ethan-1-ol], the IC50 was at most 1 µM.
Regarding `Cc1nc2c(N[C@H]3CC[C@H](N4CCOCC4)CC3)nc(N)nc2s1` [Compound I-43, 2-methyl-N7-((1r,4r)-4-morpholinocyclo-hexyl)thiazolo[5,4-d]pyrimidine-5,7-diamine], the 50% inhibitory concentration (IC50) was at least 5 µM.
Turning to `Cn1cc(Nc2nc(N[C@H]3CC[C@H](N4CCOCC4)CC3)c3nc(C4CC4)sc3n2)cn1` [Compound I-49, 2-cyclopropyl-N5-(1-methyl-1H-pyrazol-4-yl)-N7-((1r,4r)-4-morpholinocyclohexyl)thiazolo[5,4-d]pyrimidine-5,7-diamine], the half-maximal inhibitory concentration (IC50) was at most 1 µM.
`CCc1nc2c(N[C@H]3CC[C@H](N(C)CC(=O)N4CCCC4)CC3)nc(Nc3cnn(C)c3)nc2s1` [Compound I-15, 2-(((1r,4r)-4-((2-ethyl-5-((1-methyl-1H-pyrazol-4-yl)amino)-thiazolo[5,4-d]pyrimidin-7-yl)amino)cyclohexyl)(methyl)amino)-1-(pyrrolidin-1-yl)ethan-1-one]: the IC50 is at most 1 µM.
On to `c1nc2c(N[C@H]3CC[C@H](N4CCOCC4)CC3)nc(Nc3cnn(CC4CCOCC4)c3)nc2s1` [Compound I-52, N7-((1r,4r)-4-morpholinocyclohexyl)-N5-(1-((tetrahydro-2H-pyran-4-yl)methyl)-1H-pyrazol-4-yl)thiazolo[5,4-d]pyrimidine-5,7-diamine], for which the half-inhibitory concentration (IC50) was at most 1 µM.
For `Cn1cc(Nc2nc(N[C@H]3CC[C@H](N4CCOCC4)CC3)c3nc(C(C)(C)C)sc3n2)cn1` [Compound I-50, 2-(tert-butyl)-N5-(1-methyl-1H-pyrazol-4-yl)-N7-((1r,4r)-4-morpholinocyclohexyl)thiazolo[5,4-d]pyrimidine-5,7-diamine] the value was 1 to 5 µM; for `Cn1cc(Nc2nc(N[C@H]3CC[C@H](N4CCOCC4)CC3)c3ncsc3n2)cn1` [Compound I-46, N5-(1-methyl-1H-pyrazol-4-yl)-N7-((1r,4r)-4-morpholinocyclo-hexyl)thiazolo[5,4-d]pyrimidine-5,7-diamine], at most 1 µM; for `Cc1nc2c(O[C@H]3CC[C@H](N4CCOCC4)CC3)nc(Nc3cnn(C(C)C)c3)nc2s1` [Compound I-57, N-(1-isopropyl-1H-pyrazol-4-yl)-2-methyl-7-(((1r,4r)-4-morpholino-cyclohexyl)oxy)thiazolo[5,4-d]pyrimidin-5-amine], at most 1 µM.
`CCc1nc2c(N[C@H]3CC[C@H](N4CCC(F)(F)CC4)CC3)nc(Nc3cnn(C)c3)nc2s1` [Compound I-11, N7-((1r,4r)-4-(4,4-difluoropiperidin-1-yl)cyclohexyl)-2-ethyl-N5-(1-methyl-1H-pyrazol-4-yl)thiazolo[5,4-d]pyrimidine-5,7-diamine] gave an IC50 of 1 to 5 µM.
`Cn1cc(Nc2nc(N[C@H]3CC[C@H](N4CCOCC4)CC3)c3nc(C(F)F)sc3n2)cn1` [Compound I-45, 2-(difluoromethyl)-N5-(1-methyl-1H-pyrazol-4-yl)-N7-((1r,4r)-4-morpholinocyclohexyl)thiazolo[5,4-d]pyrimidine-5,7-diamine] returned an IC50 of at most 1 µM.
In the case of `CC(C)n1cc(Nc2nc(N[C@H]3CC[C@H](N4CCOCC4)CC3)c3ncsc3n2)cn1` [Compound I-53, N5-(1-isopropyl-1H-pyrazol-4-yl)-N7-((1r,4r)-4-morpholino-cyclohexyl)thiazolo[5,4-d]pyrimidine-5,7-diamine] it was at most 1 µM.
Regarding `c1nc2c(N[C@H]3CC[C@H](N4CCOCC4)CC3)nc(Nc3cnn(C4CCOCC4)c3)nc2s1` [Compound I-51, N7-((1r,4r)-4-morpholinocyclohexyl)-N5-(1-(tetrahydro-2H-pyran-4-yl)-1H-pyrazol-4-yl)thiazolo[5,4-d]pyrimidine-5,7-diamine], the IC50 was at most 1 µM.
`CCc1nc2c(N[C@H]3CC[C@H](N(C)C)CC3)ncnc2s1` [Compound I-1, (1r,4r)-N1-(2-ethylthiazolo[5,4-d]pyrimidin-7-yl)-N4,N4-dimethylcyclohexane-1,4-diamine] registered a half-inhibitory concentration (IC50) of 1 to 5 µM.
With `Cn1cc(Nc2nc(N[C@H]3CC[C@H](N4CCOCC4)CC3)c3nc(C(F)(F)F)sc3n2)cn1` [Compound I-44, N5-(1-methyl-1H-pyrazol-4-yl)-N7-((1r,4r)-4-morpholino-cyclohexyl)-2-(trifluoromethyl)thiazolo[5,4-d]pyrimidine-5,7-diamine], the concentration for half-maximal inhibition (IC50) was at most 1 µM.
In the case of `CCc1nc2c(O[C@H]3CC[C@H](N(C)C)CC3)ncnc2s1` [Compound I-3, (1r,4r)-4-((2-ethylthiazolo[5,4-d]pyrimidin-7-yl)oxy)-N,N-dimethylcyclo-hexanamine] it was at least 5 µM; in that of `CC(C)c1nc2c(N[C@H]3CC[C@H](N4CCOCC4)CC3)nc(Nc3cnn(C)c3)nc2s1` [Compound I-47, 2-isopropyl-N5-(1-methyl-1H-pyrazol-4-yl)-N7-((1r,4r)-4-morpholinocyclohexyl)thiazolo[5,4-d]pyrimidine-5,7-diamine], at most 1 µM; in that of `[2H]C([2H])([2H])c1nc2c(N[C@H]3CC[C@H](N4CCOCC4)CC3)nc(Nc3cnn(C)c3)nc2s1` [Compound I-58, 2-(methyl-d3)-N5-(1-methyl-1H-pyrazol-4-yl)-N7-((1r,4r)-4-morpholinocyclohexyl)thiazolo[5,4-d]pyrimidine-5,7-diamine], at most 1 µM.
